Source: patent US5686448A (priority 1995, dated 1997)
Where two headings read alike, the source gives them in different places.

Key:
HSV-2 = conditions: for Percent Reduction of lesions / # of lesions: TEAC ointment from 12-16 hours p.i.
Experimental: Female guinea pigs (obtained from Charles River, Inc.) weighing approximately 200 g were used as a model for HSV-2 skin lesions. The animals were anesthetized with 0.15 ml of Ketamine-Rompum mixture. The animals were first shaved on their back with a hair clipper and then treated with a depilatory cream (Nair). The denuded area was washed well and then dried. A tuberculin tyne was washed with ethanol and air dried.
Two methods were tried for infecting the animals with the virus. In one, a drop of HSV-2 suspension was placed on the skin and the skin was punctured with the tyne. In the second method, the tyne was dipped in the virus suspension before puncturing the skin.
In the first experiment, each of 3 guinea pigs was infected on three areas of their backs. At 3 days post infection, treatment was begun on one side of each animal, leaving the other side untreated as a control.
The animals were examined daily for vesicles (V), crust (C) and for erythema (R) alone.
In the next experiment 6 guinea pigs were infected in the same manner as the initial 3 guinea pigs. Treatment was begun 12-16 hours post infection. […] Lesions showing an erythematous base with either a blister or a crust on top were considered to HSV specific. […] Both the control animals and treated animals were carefully read in the same manner.

[1] = Text: Patient B is a person diagnosed as having both HSV type 1 (expressed as oral lesions) and HSV type 2 (expressed as penile lesions).
Patient E is a person who weighed 93 kg when they reported for treatment.
Patient K is a person who weighed 59 kg. when they reported for treatment. They were diagnosed as having HSV type 2. They described a history of lesions on the buttocks and genital region with attacks occurring monthly in cooler weather and weekly in warmer weather.

[2] = Exp. 1D, added after adsorption, 25.0 mg/culture
[3] = Exp. 1D, added after adsorption, 50.0 mg/culture

With `CC[N+](CC)(CC)CC.[Cl-]` [TEAC, tetraethylammonium chloride] as the molecule, how does the “Percent Reduction of lesions” value (HSV-2; day 3 P.I.) read?
The value was 21%.

What about the “# of lesions” value (HSV-2; day 3 P.I., control 19) of the same molecule?
The value was 15.

What about the “Percent Reduction of lesions” value (HSV-2; day 4 P.I.) of the same molecule?
Its value is 27.5%.

And the “# of lesions” value (HSV-2; day 4 P.I., control 40)?
Its value is 29.

What about the “Percent Reduction of lesions” value (HSV-2; day 5 P.I.) of the same molecule?
The value was 58.5%.

And the “# of lesions” value (HSV-2; day 5 P.I., control 41)?
Its value is 17.

And the “Percent Reduction of lesions” value (HSV-2; day 6 P.I.)?
Its value is 58.3%.

And the “# of lesions” value (HSV-2; day 6 P.I., control 36)?
The value was 15.

And the lesion appearance (HSV-2; first experiment, 4 times daily from 3 days p.i.)?
The lesion appearance was “did not crust but appeared to be faded by 6 days post infection”.

What about the dermatitis (HSV-2; first experiment, day 4 after treatment, probably due to TEAC or its vehicle or both) of the same molecule?
Its dermatitis is “a rash appeared”.

What about the “number and size of lesions” value (HSV-2; given 12-16 hours p.i.) of the same molecule?
Its value is “significant reduction in the number of lesions, but also in their size”.

And the “rupture and crusting of lesions” value (HSV-2; given 12-16 hours p.i.)?
The value was “neither ruptured nor crusted”.

And the vesicle formation (HSV-2; given 12-16 hours p.i.)?
Its vesicle formation is “less vesicles formed”.

And the vesicles (HSV-2; given 3 days p.i.)?
The vesicles was “reduced in elevation and eventually resolved”.

What about the “number and appearance of lesions vs control” value (HSV-2; treatment from 12-16 hours p.i.) of the same molecule?
The value was “marked difference between the two groups”.

What about the “% plaque inhibition” value (HSV-1 (F strain); Exp. 1C, added after inoculation, 0.62 mg/culture) of the same molecule?
Its value is 30%.

And the “% plaque inhibition” value (HSV-1 (F strain); Exp. 1C, added after inoculation, 1.25 mg/culture)?
Its value is 39%.

What about the “% plaque inhibition” value (HSV-1 (F strain); Exp. 1C, added after inoculation, 2.50 mg/culture) of the same molecule?
Its value is 46%.

And the “% plaque inhibition” value (HSV-1 (F strain); Exp. 1C, added after inoculation, 5.00 mg/culture)?
The value was 45%.

What about the “% plaque inhibition” value (HSV-1 (F strain); Exp. 1C, added after inoculation, 10.00 mg/culture) of the same molecule?
Its value is 56%.

What about the antiviral activity (HSV-1 (F strain); Exp. 1C, all dilutions) of the same molecule?
The antiviral activity was “Antiviral activity was seen in all dilutions tested”.

And the “% plaque inhibition” value (HSV-1 (F strain); Exp. 1D, added after adsorption, 6.2 mg/culture)?
The value was 20%.

What about the “% plaque inhibition” value (HSV-1 (F strain); Exp. 1D, added after adsorption, 12.5 mg/culture) of the same molecule?
The value was 62%.

What about the plaque formation (HSV-1 (F strain); Exp. 1D, added after adsorption, 25 mg/culture) of the same molecule?
Its plaque formation is “no plaque formed”.

And the “% plaque inhibition” value (HSV-1 (F strain); [2])?
The value was 100%.

What about the “cell layer appearance (thin = cells attached, monolayer not confluent)” value (HSV-1 (F strain); [2]) of the same molecule?
Its value is “thin”.

What about the plaque formation (HSV-1 (F strain); Exp. 1D, added after adsorption, 50 mg/culture) of the same molecule?
Its plaque formation is “no plaque formed”.

And the “% plaque inhibition” value (HSV-1 (F strain); [3])?
The value was 100%.

And the “cell layer appearance (thin = cells attached, monolayer not confluent)” value (HSV-1 (F strain); [3])?
The value was “thin”.

What about the “inhibition of in vitro replication” value (HSV-1 (F strain); HSV-1, summary) of the same molecule?
Its value is “inhibited the in vitro replication of HSV-1 and HSV-2”.

What about the side effects ([1]; Patient A, first infusion 2.8 cc) of the same molecule?
The side effects was “some blurred vision and slight dizziness on rising to the seated position”.

And the side effects ([1]; Patient A, second infusion 3.2 cc)?
The side effects was “some blurred vision”.

And the drug related effects ([1]; Patient B, 3.7 cc (5 mg/kg))?
Its drug related effects is “blurred vision, dryness of the mouth, and unsteady gait”.

What about the “time to cessation of drug related effects after infusion” value ([1]; Patient B, 3.7 cc (5 mg/kg)) of the same molecule?
Its value is 10 to 15 min.

And the side effects ([1]; Patient C, 3.85 cc (5 mg/kg))?
Its side effects is “slightly blurred vision”.

What about the side effects ([1]; Patient D, 2.8 cc (5 mg/kg)) of the same molecule?
The side effects was “dry mouth and transient blurred vision”.

And the side effects ([1]; Patient E, 4.8 cc (5 mg/kg))?
The side effects was “slightly blurred vision”.

And the reddening of lip ([1]; Patient G, 4.3 cc)?
Its reddening of lip is “some reddening of the lip”.

And the side effects ([1]; Patient J, 3.6 cc (5.5 mg/kg))?
Its side effects is “some blurred vision”.

And the side effects ([1]; Patient K, first infusion 3.1 cc)?
The side effects was “some blurred vision”.

What about the side effects ([1]; Patient K, second infusion 3.4 cc) of the same molecule?
The side effects was “blurred vision”.

And the “duration of feeling badly following treatment” value ([1]; Patient L, 2.9 cc (5.5 mg/kg))?
Its value is 24 to 36 h.

And the side effects ([1]; Patient L, 2.9 cc (5.5 mg/kg))?
Its side effects is “some blurred vision”.
